For 25 molecules, MIC results are on record in ChEMBL document CHEMBL1147975, “Synthesis, structure, and structure-activity relationship analysis of enamines as potential antibacterials” (2007).

Holding throughout (format): functional
One assay relates to Candida albicans. The assay is described as follows: Antifungal activity against Candida albicans ATCC 10231 after 48 hrs by MTT method. The following applies: ATCC 10231, 48 h. Background: Tetrazolium dyes change colour on reduction, which living cells bring about.
The next assay deals with Aspergillus niger. The assay is described as follows: Antifungal activity against Aspergillus niger ATCC 16404 after 48 hrs by MTT method. The following applies: ATCC 16404, 48 h.
The next assay deals with Pseudomonas fluorescens. In words: Antibacterial activity against Pseudomonas fluorescens ATCC 13525 after 24 hrs by MTT method. The following applies: ATCC 13525, 24 h.
Another assay has as its system Staphylococcus aureus. In words: Antibacterial activity against Staphylococcus aureus ATCC 6538 after 24 hrs by MTT method. The following applies: ATCC 6538, 24 h.
The subject of the next assay is Escherichia coli. In words: Antibacterial activity against Escherichia coli ATCC 35218 after 24 hrs by MTT method. The following applies: ATCC 35218, 24 h.
For a further assay, the system named is Bacillus subtilis. The assay is described as follows: Antibacterial activity against Bacillus subtilis ATCC 6633 after 24 hrs by MTT method. The following applies: ATCC 6633, 24 h.
The subject of another assay is Trichophyton rubrum. In words: Antifungal activity against Trichophyton rubrum ATCC 10218 after 48 hrs by MTT method. The following applies: ATCC 10218, 48 h.

Structures are written as SMILES. Values after ≈ are worked out from the molar mass of the structure shown.

In the case of `CCOC(=O)/C(=C/Nc1cc(F)cc(F)c1)c1ccc(OC)cc1`, the MIC (in general, the lowest concentration found to suppress growth) was over 50 µg/mL against Candida albicans; over 50 µg/mL against Aspergillus niger; 31.5 µg/mL (≈ 94.5 µM) with Pseudomonas fluorescens; 22.8 µg/mL (≈ 68.4 µM) with Staphylococcus aureus; over 50 µg/mL in the assay with Escherichia coli; over 50 µg/mL against Bacillus subtilis.

Regarding `CCOC(=O)/C(=C\Nc1ccc(O)cc1)c1ccc(OC)cc1`, the MIC with Candida albicans is over 50 µg/mL; in the assay on Aspergillus niger, over 50 µg/mL; against Pseudomonas fluorescens, over 50 µg/mL; with Staphylococcus aureus, 7.9 µg/mL (≈ 25.2 µM); against Escherichia coli it was over 50 µg/mL; in the assay with Bacillus subtilis, over 50 µg/mL.

Take `CCOC(=O)/C(=C\Nc1ccc(Cl)cc1)c1ccc(Cl)cc1`: the minimal inhibitory concentration (MIC) was over 50 µg/mL in the assay with Candida albicans; over 50 µg/mL in the assay with Aspergillus niger; 32.2 µg/mL (≈ 95.8 µM) in the assay with Pseudomonas fluorescens; over 50 µg/mL in the assay on Staphylococcus aureus; over 50 µg/mL in the assay on Escherichia coli; over 50 µg/mL in the assay on Bacillus subtilis.

In the case of `CCOC(=O)/C(=C\Nc1ccc(C)cc1)c1ccc(Cl)cc1`, the MIC against Candida albicans, with Aspergillus niger, with Pseudomonas fluorescens, against Staphylococcus aureus, in the assay with Escherichia coli and against Bacillus subtilis was over 50 µg/mL each time.

Consider `CCOC(=O)/C(=C/Nc1cc(Br)c(OC)c(Br)c1)c1ccc(OC)cc1`, for which the minimal inhibitory concentration (MIC) is over 50 µg/mL in the assay with Candida albicans; over 50 µg/mL against Aspergillus niger; 33 µg/mL (≈ 68 µM) in the assay with Pseudomonas fluorescens; over 50 µg/mL with Staphylococcus aureus; over 50 µg/mL with Escherichia coli; over 50 µg/mL in the assay with Bacillus subtilis.

Take `CCOC(=O)/C(=C\Nc1cc(OC)cc(OC)c1)c1ccc(OC)cc1`: the MIC in the assay on Candida albicans was over 50 µg/mL; with Aspergillus niger it was over 50 µg/mL; against Pseudomonas fluorescens it was 30 µg/mL (≈ 83.9 µM); in the assay on Staphylococcus aureus, 43.5 µg/mL (≈ 122 µM); against Escherichia coli, over 50 µg/mL; in the assay with Bacillus subtilis, over 50 µg/mL.

As to `CCOC(=O)/C(=C/Nc1cc(OC)cc(OC)c1)c1ccc(OC)cc1`, the MIC with Candida albicans is over 50 µg/mL; with Aspergillus niger it was over 50 µg/mL; against Pseudomonas fluorescens it was 25.2 µg/mL (≈ 70.5 µM); in the assay with Staphylococcus aureus, 15.8 µg/mL (≈ 44.2 µM); with Escherichia coli, 41.5 µg/mL (≈ 116 µM); against Bacillus subtilis it was over 50 µg/mL.

Take `CCOC(=O)/C(=C/Nc1ccc(C)cc1)c1ccc(Cl)cc1`: the MIC is over 50 µg/mL in the assay on Candida albicans; over 50 µg/mL in the assay with Pseudomonas fluorescens; 0.9 µg/mL (≈ 2.85 µM) with Staphylococcus aureus; over 50 µg/mL with Escherichia coli; over 50 µg/mL in the assay with Bacillus subtilis.

With `CCOC(=O)/C(=C/Nc1cc(Cl)cc(Cl)c1)c1ccc(OC)cc1`, the minimum inhibitory concentration (MIC) is over 50 µg/mL with Candida albicans; over 50 µg/mL against Aspergillus niger; 27.8 µg/mL (≈ 75.9 µM) against Pseudomonas fluorescens; 20.2 µg/mL (≈ 55.2 µM) with Staphylococcus aureus; 42.2 µg/mL (≈ 115 µM) against Escherichia coli; 42.2 µg/mL (≈ 115 µM) against Bacillus subtilis.

With `CCOC(=O)/C(=C\Nc1cc(Br)c(OC)c(Br)c1)c1ccc(OC)cc1`, the minimum inhibitory concentration (MIC) in the assay on Candida albicans, against Aspergillus niger, against Pseudomonas fluorescens, with Trichophyton rubrum, in the assay on Staphylococcus aureus and with Escherichia coli was over 50 µg/mL throughout. In addition, the MIC in the assay on Bacillus subtilis was over 50 µg/mL.

On to `CCOC(=O)/C(=C\Nc1cc(Cl)cc(Cl)c1)c1ccc(Cl)cc1`, for which the MIC against Candida albicans, in the assay on Aspergillus niger, against Pseudomonas fluorescens, with Staphylococcus aureus, in the assay on Escherichia coli and in the assay with Bacillus subtilis was over 50 µg/mL in each case.

As for `CCOC(=O)/C(=C/Nc1cc(Cl)cc(Cl)c1)c1ccc(Cl)cc1`, the MIC against Candida albicans was over 50 µg/mL; in the assay with Aspergillus niger it was over 50 µg/mL; with Pseudomonas fluorescens, 25.7 µg/mL (≈ 69.3 µM); with Staphylococcus aureus, 1.1 µg/mL (≈ 2.97 µM); in the assay on Escherichia coli it was over 50 µg/mL; against Bacillus subtilis, over 50 µg/mL.

Take `CCOC(=O)/C(=C\Nc1ccccc1Cl)c1ccc(Cl)cc1`: the MIC was over 50 µg/mL in the assay on Candida albicans; over 50 µg/mL against Aspergillus niger; over 50 µg/mL against Pseudomonas fluorescens; over 50 µg/mL with Staphylococcus aureus; 42.5 µg/mL (≈ 126 µM) in the assay on Escherichia coli; over 50 µg/mL against Bacillus subtilis.

For `CCOC(=O)/C(=C/Nc1ccc(O)cc1)c1ccc(OC)cc1`, the MIC against Candida albicans is over 50 µg/mL; against Aspergillus niger it was over 50 µg/mL; against Pseudomonas fluorescens it was over 50 µg/mL; against Staphylococcus aureus it was 3.8 µg/mL (≈ 12.1 µM); in the assay on Escherichia coli it was over 50 µg/mL; against Bacillus subtilis, over 50 µg/mL.

Turning to `CCOC(=O)/C(=C/Nc1ccccc1Cl)c1ccc(Cl)cc1`, the MIC was over 50 µg/mL in the assay with Candida albicans; over 50 µg/mL against Aspergillus niger; 35.3 µg/mL (≈ 105 µM) with Pseudomonas fluorescens; over 50 µg/mL in the assay with Staphylococcus aureus; 38.8 µg/mL (≈ 115 µM) against Escherichia coli; 43.8 µg/mL (≈ 130 µM) against Bacillus subtilis.

In the case of `CCOC(=O)/C(=C\Nc1cc(F)cc(F)c1)c1ccc(Cl)cc1`, the MIC in the assay with Candida albicans, against Aspergillus niger, against Pseudomonas fluorescens, against Staphylococcus aureus, against Escherichia coli and in the assay on Bacillus subtilis was over 50 µg/mL in each case.

Turning to `CCOC(=O)/C(=C/Nc1cc(F)cc(F)c1)c1ccc(Cl)cc1`, the MIC is over 50 µg/mL in the assay on Candida albicans; over 50 µg/mL in the assay with Aspergillus niger; 31.5 µg/mL (≈ 93.3 µM) against Pseudomonas fluorescens; 1.9 µg/mL (≈ 5.63 µM) against Staphylococcus aureus; over 13.5 µg/mL in the assay with Escherichia coli; 48.2 µg/mL (≈ 143 µM) in the assay on Bacillus subtilis.

Take `CCOC(=O)/C(=C/Nc1ccc(Br)cc1)c1ccc(Cl)cc1`: the MIC against Candida albicans, in the assay with Aspergillus niger, against Pseudomonas fluorescens, in the assay with Staphylococcus aureus, in the assay with Escherichia coli and against Bacillus subtilis was over 50 µg/mL in each case.

With `CCOC(=O)/C(=C\Nc1cc(Cl)cc(Cl)c1)c1ccc(OC)cc1`, the MIC was over 50 µg/mL in the assay with Candida albicans; over 50 µg/mL in the assay on Aspergillus niger; 33.8 µg/mL (≈ 92.3 µM) in the assay with Pseudomonas fluorescens; over 50 µg/mL in the assay on Staphylococcus aureus; over 50 µg/mL with Escherichia coli; over 50 µg/mL against Bacillus subtilis.

As to `CCOC(=O)/C(=C\Nc1ccc(Br)cc1)c1ccc(Cl)cc1`, the MIC with Candida albicans, in the assay on Aspergillus niger, with Pseudomonas fluorescens, in the assay with Staphylococcus aureus, in the assay on Escherichia coli and in the assay on Bacillus subtilis was over 50 µg/mL in each case.

On to `CCOC(=O)/C(=C/Nc1ccc(Br)cc1)c1ccc(OC)cc1`, for which the MIC is over 50 µg/mL against Candida albicans; over 50 µg/mL in the assay with Aspergillus niger; 31.7 µg/mL (≈ 84.3 µM) against Pseudomonas fluorescens; over 50 µg/mL in the assay on Staphylococcus aureus; over 50 µg/mL against Escherichia coli; over 50 µg/mL in the assay with Bacillus subtilis.

For `CCOC(=O)/C(=C\Nc1ccc(Br)cc1)c1ccc(OC)cc1`, the MIC with Candida albicans, against Aspergillus niger, against Pseudomonas fluorescens, against Staphylococcus aureus, with Escherichia coli and with Bacillus subtilis was over 50 µg/mL each time.

`CCOC(=O)/C(=C/Nc1ccc(Cl)cc1)c1ccc(Cl)cc1`: the MIC with Candida albicans was over 50 µg/mL; with Aspergillus niger, over 50 µg/mL; against Pseudomonas fluorescens, 29.5 µg/mL (≈ 87.7 µM); with Staphylococcus aureus, over 50 µg/mL; against Escherichia coli it was 42.5 µg/mL (≈ 126 µM); against Bacillus subtilis, 42 µg/mL (≈ 125 µM).

As to `CCOC(=O)/C(=C\Nc1cc(F)cc(F)c1)c1ccc(OC)cc1`, the MIC in the assay on Candida albicans, against Aspergillus niger, with Pseudomonas fluorescens, in the assay on Staphylococcus aureus, against Escherichia coli and in the assay with Bacillus subtilis was over 50 µg/mL in each case.

As for `NC[C@H]1O[C@H](O[C@H]2[C@H](O)[C@@H](O[C@H]3O[C@H](CO)[C@@H](O)[C@H](N)[C@H]3O)[C@H](N)C[C@@H]2N)[C@H](O)[C@@H](O)[C@@H]1O` [KANAMYCIN], the MIC in the assay with Pseudomonas fluorescens worked out at 3.9 µg/mL (≈ 8.05 µM); with Staphylococcus aureus, 1 µg/mL (≈ 2.06 µM); with Escherichia coli, 3.9 µg/mL (≈ 8.05 µM); in the assay with Bacillus subtilis, 0.39 µg/mL (≈ 0.805 µM).
